# Test results reported in patent US20230132582A1, “NOVEL USE OF ASPIRIN COMPOUND IN INCREASING NUCLEIC ACID EXPRESSION” (priority 2020, published 2023).
# Columns and labels:
# [1] = tested on: expression of luciferase from AAV9-Lxp3.3-Gluc virus; experiment: AAV9-mediated luciferase (Gluc) expression in plasma of mice pre-treated with aspirin at different doses (Example 2); type: in vivo, C57BL/6J mice
# Description: (§1) Male C57BL/6J mice (purchased from Shanghai Jiesijie Experimental Animals Co., Ltd.) (n=4) with an average weight of 20 g were divided into six groups. Aspirin was used for intraperitoneal injection for 7 consecutive days (Day −7 to Day −1), at doses of 1 mg/kg, 15 mg/kg, 30 mg/kg, 50 mg/kg, 100 mg/kg, respectively, to five groups of mice. The sixth group was injected with 5% castor oil (in PBS buffer (catalogue number: 02-024-1ACS, BI)) as a control. On Day 0, AAV9-Lxp3.3-Gluc virus was injected intravenously (5×10^12 vg/kg) to each mouse in every group, and expression of luciferase was detected from Day 1 onwards.
# Blood samples of mice were collected by retro-orbital bleeding. […] The contents of IFN-α and IFN-β were determined by using Mouse IFN-β ELISA kit (720131-2, Shanghai Mlbio Co., Ltd.), LEGEND MAX™ Mouse IFN-β ELISA Kit (439407, BioLegend), and Mouse IFN-α ELISA kit (706291-2, Shanghai Mlbio Co., Ltd.).
# (§2) Coelenterazine h (40906ES02, Shanghai Yeasen Biotech Co., Ltd.) buffer was prepared first: to 500 mL of ultra-pure water was added 29.72 g of sodium ascorbate, and then 50 mL of Tris-HCl (1 mol/L, pH 7.4). […] of the above working solution is added to a […], and the relative light unit (RLU) was detected with a Synergy H1 multifunctional microplate reader.
# IFN-α [2] = experiment: Serum IFN-α ELISA after AAV9 injection with aspirin at different doses (Example 2); type: in vivo, C57BL/6J mice; settings: Day 3 post AAV9 injection, vs control group (FIG. 2)
# Description: as §1
# (§3) Blood samples of mice were collected by retro-orbital bleeding. Half of the volume of blood samples was added with sodium citrate at a ratio of 1:9 for anticoagulation, mixed, centrifuged within 30 minutes (6000 rpm, 5 mins), and the supernatant was collected as the mouse plasma, for detection of the expression of Gluc. The remaining blood sample was left at room temperature for 2 hours to separate the serum, centrifuged at 6000 rpm for 15 min, and the supernatant was collected as the mouse serum sample. The contents of IFN-α and IFN-β were determined by using Mouse IFN-β ELISA kit (720131-2, Shanghai Mlbio Co., Ltd.), LEGEND MAX™ Mouse IFN-β ELISA Kit (439407, BioLegend), and Mouse IFN-α ELISA kit (706291-2, Shanghai Mlbio Co., Ltd.).
# [3] = tested on: expression of luciferase from AAV8-Lxp3.3-Gluc; experiment: Luciferase expression after AAV8-Lxp3.3-Gluc injection in aspirin-treated mice (Example 3); type: in vivo, C57BL/6J mice
# Description: as §3, §2
# (§4) The injection dose of 50 mg/kg aspirin was used in further study of AAV-mediated expression of exogenous genes by three different AAV serotypes. […] Blood sample were collected and expression level of luciferase was detected following the same methods as described in Example 2.
# [4] = tested on: expression of luciferase from AAV9-Lxp3.3-Gluc; experiment: Luciferase expression after AAV9-Lxp3.3-Gluc injection in aspirin-treated mice (Example 3); type: in vivo, C57BL/6J mice
# Description: as §3, §2, §4
# [5] = tested on: expression of luciferase from AAV843-Lxp3.3-Gluc; experiment: Luciferase expression after AAV843-Lxp3.3-Gluc injection in aspirin-treated mice (Example 3); type: in vivo, C57BL/6J mice
# Description: as §3, §2, §4
# [6] = tested on: expression level of the transgene (AAV); experiment: Co-administration of AAV and aspirin, transgene expression (preliminary); type: in vivo; settings: co-administration of AAV and aspirin in one formulation or separate formulations at the same time; preliminary results
# From the text: Studies have been conducted for co-administration of AAV and aspirin either in one formulation or in separate formulations but at the same time.
# IFN-α [7] = experiment: Serum IFN-α ELISA after AAV8, AAV9 or AAV843 injection in aspirin-treated mice (Example 4); type: in vivo, C57BL/6J mice
# Description: as §3
# (§5) The injection dose of 50 mg/kg aspirin was used in further study of AAV-mediated expression of exogenous genes by three different AAV serotypes. The study design was similar to that of Example 2. Briefly, for each AAV serotype (i.e., AAV8-Lxp3.3-Gluc, AAV9-Lxp3.3-Gluc, or AAV843-Lxp3.3-Gluc), male C57BL/6J mice (purchased from Shanghai Jiesijie Experimental Animals Co., Ltd.) (n=4) with an average weight of 20 g were divided into two groups. One group was injected with aspirin at 50 mg/kg for 7 consecutive days, and the other group was injected with 5% castor oil (in PBS buffer (catalogue number: 02-024-1ACS, BI)) as a control. On Day 8, 5×10^12 vg/kg of AAV8-Lxp3.3-Gluc, AAV9-Lxp3.3-Gluc, or AAV843-Lxp3.3-Gluc virus (diluted in 150-200 μl PBS) was delivered to each mouse by tail vein injection. Blood sample were collected and expression level of luciferase was detected following the same methods as described in Example 2.
# (§6) In the study described in Example 3, the level of IFN-α and IFN-β were determined by using Mouse IFN-β ELISA kit (720131-2, Shanghai Mlbio Co., Ltd.), LEGEND MAX™ Mouse IFN-β ELISA Kit (439407, BioLegend), and Mouse IFN-α ELISA kit (706291-2, Shanghai Mlbio Co., Ltd.) according to the user's manual.
# IFN-β = experiment: Serum IFN-β ELISA after AAV8, AAV9 or AAV843 injection in aspirin-treated mice (Example 4); type: in vivo, C57BL/6J mice
# Description: as §3, §5, §6
# [8] = tested on: Gluc expression from AAV9-CB-Gluc in brain; experiment: Gluc mRNA and enzymatic activity in brain after AAV9-CB-Gluc with aspirin (Example 6); type: in vivo, mice; settings: for enzymatic activity level of Gluc, up-regulation vs non-treatment group: p<0.01 (FIG. 7B)
# Description: (§7) Expression of exogenous gene was detected in mice either pre-treated with Aspirin, or co-administered with Aspirin. AAV9-CB-Gluc was prepared according to methods provided in Example 1, except that nucleic acid sequence for CB promoter (see SEQ ID NO: 3) was used. In brief, Aspirin was pre-administrated to a group of mice at 50 mg/kg by intraperitoneal injection for 7 days, followed by administration of AAV9-CB-Gluc (5×10^13 vg/kg) at day 8. In comparison, a group of mice without pre-administration of Aspirin was administrated with Aspirin at 50 mg/kg simultaneously in combination with AAV9-CB-Gluc. 15 days after the AAV9-CB-Gluc administration, the mice were sacrificed, and brain and liver were collected for determination of expression Gluc.
# [9] = tested on: Gluc expression from AAV9-CB-Gluc in liver; experiment: Gluc mRNA and enzymatic activity in liver after AAV9-CB-Gluc with aspirin (Example 6); type: in vivo, mice
# Description: as §7
# [10] = tested on: IDS enzyme activity in brain (AAV9-CB-IDS); experiment: IDS enzyme activity in brain of MPSII mice after AAV9-CB-IDS with aspirin pre-treatment (Example 7); type: in vivo, B6N.Cg-Ids^tm1Muen/J mice (MPSII model)
# Description: The effects of aspirin on improving the expression of therapeutic transgene in brain were determined. AAV9-CB-IDS vector were produced using methods described in Example 1, except that iduronate 2-sulfatase (IDS) gene expression cassette was inserted between the AAV ITRs. The gene encoding IDS was provided in SEQ ID NO: 7 and the protein sequence of IDS was provided in SEQ ID NO: 11. […] A group of wild-type control mice was used as control. The AAV9-CB-IDS vector for treating MPSII was administrated as described in Example 1, at a dose of 3×10^13 vg/kg (i.e. 3E13 group) or 1×10^14 vg/kg (i.e. 1E14 group) to mice pre-treated with aspirin injection. One month after the AAV9-CB-IDS injection, the IDS enzyme activity was detected in brain (FIG. 8).
smiles,measurement,setting,value
"CC(=O)Oc1ccccc1C(=O)O [aspirin, Acetylsalicylic acid]",expression level of luciferase,"[1]; 100 mg/kg of aspirin i.p. 7 days before AAV9-Lxp3.3-Gluc 5×10^12 vg/kg i.v., compared with other doses (FIG. 1)",highest expression level
same,expression level of luciferase,"[1]; aspirin i.p. 7 consecutive days at 1, 15, 30, 50, 100 mg/kg before AAV9-Lxp3.3-Gluc 5×10^12 vg/kg i.v., comparison across dose groups (FIG. 1)",dose dependent increase
same,level of IFN-α on Day 3,IFN-α [2]; aspirin 50 mg/kg,significantly lower
same,level of IFN-α on Day 3,IFN-α [2]; aspirin 100 mg/kg,significantly lower
same,transduction in vivo (expression of luciferase),"[3]; aspirin 50 mg/kg 7 consecutive days, AAV8-Lxp3.3-Gluc 5×10^12 vg/kg tail vein, vs control (FIG. 3A)",remarkably promote
same,day of peak expression of luciferase after AAV injection,"[3]; aspirin 50 mg/kg 7 days, AAV8-Lxp3.3-Gluc, control groups also peaked on Day 15",15 days
same,transduction in vivo (expression of luciferase),"[4]; aspirin 50 mg/kg 7 consecutive days, AAV9-Lxp3.3-Gluc 5×10^12 vg/kg tail vein, vs control (FIG. 3B)",remarkably promote
same,day of peak expression of luciferase after AAV injection,"[4]; aspirin 50 mg/kg 7 days, AAV9-Lxp3.3-Gluc, control groups also peaked on Day 15",15 days
same,transduction in vivo (expression of luciferase),"[5]; aspirin 50 mg/kg 7 consecutive days, AAV843-Lxp3.3-Gluc 5×10^12 vg/kg tail vein, vs control (FIG. 3C)",remarkably promote
same,day of peak expression of luciferase after AAV injection,"[5]; aspirin 50 mg/kg 7 days, AAV843-Lxp3.3-Gluc, control groups also peaked on Day 15",15 days
same,expression level of the transgene,[6],increase the expression level of the transgene
same,IFN-α level,"IFN-α [7]; after AAV8 injection, aspirin 50 mg/kg 7 days, control significantly higher except Day 31 (FIG. 4A)",maintained at a relatively low level
same,IFN-α level,"IFN-α [7]; after AAV9 injection, aspirin 50 mg/kg 7 days, vs control group (FIG. 5A)",significantly lower than that in the control group
same,IFN-α level,"IFN-α [7]; after AAV843 injection, Day 31, aspirin treatment vs control group (FIG. 6A)",no significant difference
same,IFN-α level,"IFN-α [7]; after AAV843 injection, aspirin 50 mg/kg 7 days, vs control group, before Day 31 (FIG. 6A)",significantly lower than those in the control group
same,IFN-β level in the control group versus the aspirin treatment group,"IFN-β; after AAV8 injection, aspirin 50 mg/kg 7 days (FIG. 4B)",always significantly higher than that in the aspirin treatment group
same,IFN-β level,"IFN-β; after AAV9 injection, aspirin 50 mg/kg 7 days, Day 1 to Day 31, significantly different from control Day 1 to Day 23 (FIG. 5B)",maintained at a low level
same,IFN-β level,"IFN-β; after AAV843 injection, Day 31, aspirin treatment vs control group (FIG. 6B)",no significant difference
same,IFN-β level,"IFN-β; after AAV843 injection, aspirin 50 mg/kg 7 days, vs control group, before Day 31 (FIG. 6B)",significantly lower than those in the control group
same,"mRNA level of Gluc, up-regulation vs non-treatment group","[8]; aspirin 50 mg/kg simultaneously with AAV9-CB-Gluc, 15 days after AAV (FIG. 7A)",2.95 fold
same,"enzymatic activity level of Gluc, up-regulation vs non-treatment group","[8]; aspirin 50 mg/kg simultaneously with AAV9-CB-Gluc, 15 days after AAV",3.55 fold
same,"mRNA level of Gluc, up-regulation vs non-treatment group","[8]; pre-injection of aspirin 50 mg/kg i.p. 7 days, AAV9-CB-Gluc 5×10^13 vg/kg day 8, 15 days after AAV, p<0.01 (FIG. 7A)",5.5 fold
same,"enzymatic activity level of Gluc, up-regulation vs non-treatment group","[8]; pre-injection of aspirin 50 mg/kg i.p. 7 days, AAV9-CB-Gluc 5×10^13 vg/kg day 8, 15 days after AAV",7.13 fold
same,mRNA level of Gluc vs non-treatment group,[9]; aspirin 50 mg/kg simultaneously with AAV9-CB-Gluc (FIG. 7C),even lower than that of the non-treatment group
same,level of enzymatic activity of Gluc vs non-treatment group,[9]; aspirin 50 mg/kg simultaneously with AAV9-CB-Gluc (FIG. 7D),not significantly different
same,"level of enzymatic activity of Gluc, up-regulation vs non-treatment group","[9]; pre-injection of aspirin 50 mg/kg i.p. 7 days, AAV9-CB-Gluc 5×10^13 vg/kg, p<0.01 (FIG. 7D)",1.95 fold
same,"level of mRNA of Gluc, up-regulation vs non-treatment group","[9]; pre-injection of aspirin 50 mg/kg i.p. 7 days, AAV9-CB-Gluc 5×10^13 vg/kg, p<0.05 (FIG. 7C)",1.43 fold
same,IDS enzyme activity in brain vs wild type mice group,"[10]; aspirin pre-treatment (50 mg/kg) + AAV9-CB-IDS 3×10^13 vg/kg, one month after injection (FIG. 8)",even higher than that of the wild type mice group
same,IDS enzyme activity in brain vs group receiving no aspirin but only AAV9-CB-IDS,"[10]; aspirin pre-treatment + AAV9-CB-IDS 3×10^13 vg/kg vs AAV9-CB-IDS alone at 3×10^13 vg/kg (p<0.05) or 10^14 vg/kg, one month (FIG. 8)",significantly higher
